Laboratory results from US5567692A, “9-[(substituted glycyl) amido)]-6-demethyl-6-deoxytetracyclines” (priority 1995, dated 1996).
Converted amounts (≈) assume the structure as drawn. Where a name gives a salt, the structure may show the parent alone. Read-outs that look alike come from different tables or passages of the source.

Legend:
Assay type in all cases: cell-based
[1] = test system: S. aureus UBMS 90-2 Tet M; assay: microbe, parasite or virus in culture; conditions: Staphylococcus aureus, UBMS902TETM, 18 h
S. aureus SMITH (MP) = assay: MIC, agar dilution; conditions: Staphylococcus aureus, 18 h
S. aureus IVES 1983 = assay: MIC, agar dilution; conditions: Staphylococcus aureus, IVES1983, 18 h
[2] = test system: S. hemolyticus AVHAH 88-3; assay: MIC, agar dilution; conditions: Streptococcus pyogenes, AVHAH883, 18 h
[3] = test system: S. aureus UBMS 88-5 Tet M; assay: microbe, parasite or virus in culture; conditions: Staphylococcus aureus, UBMS885TETM, 18 h
[4] = test system: E. coli UBMS 89-2 Tet sens.; assay: MIC, agar dilution; conditions: Escherichia coli, 18 h
[5] = test system: E. coli MC 4100 TNIOC Tet B; assay: microbe, parasite or virus in culture; conditions: Escherichia coli, 18 h
E. coli #311 (MP) = assay: MIC, agar dilution; conditions: Escherichia coli, 18 h
S. aureus UBMS 88-4 = assay: MIC, agar dilution; conditions: Staphylococcus aureus, UBMS884, 18 h
[6] = test system: X. maltophilia NEMC 87210; assay: MIC, agar dilution; conditions: Stenotrophomonas maltophilia, NEMC87210, 18 h
E. coli J2175 = assay: MIC, agar dilution; conditions: Escherichia coli, 18 h, read-out: MIC
[7] = test system: S. aureus UBMS 90-1 Tet M; assay: microbe, parasite or virus in culture; conditions: Staphylococcus aureus, UBMS901TETM, 18 h
E. coli J3272 Tet D = assay: microbe, parasite or virus in culture; conditions: Escherichia coli, J3272TETD, 18 h
E. coli ATCC 25922 = assay: MIC, agar dilution; conditions: Escherichia coli, ATCC25922, 18 h
E. coli BAJ9003 IMP MUT = assay: microbe, parasite or virus in culture; conditions: Escherichia coli, BAJ9003IMPMUT, 18 h
E. coli PRP1 Tet A = assay: microbe, parasite or virus in culture; conditions: Escherichia coli, PRP1TETA, 18 h
[8] = test system: E. coli MC 4100 Tet sens.; assay: MIC, agar dilution; conditions: Escherichia coli, 18 h
S. aureus UBMS 90-3 = assay: MIC, agar dilution; conditions: Staphylococcus aureus, UBMS903, 18 h
E. coli UBMS 89-1 Tet M = assay: microbe, parasite or virus in culture; conditions: Escherichia coli, UBMS891TETM, 18 h
E. coli J3272 Tet C = assay: microbe, parasite or virus in culture; conditions: Escherichia coli, J3272TETC, 18 h
S. aureus ATCC 29213 = assay: MIC, agar dilution; conditions: Staphylococcus aureus, ATCC29213, 18 h, S. aureus ATCC 29213
E. coli UBMS 90-5 = assay: microbe, parasite or virus in culture; conditions: Escherichia coli, UBMS905, 18 h, E. coli UBMS 90-5; read-out: MIC
S. aureus IVES 2943 = assay: MIC, agar dilution; conditions: Staphylococcus aureus, IVES2943, 18 h
[9] = test system: Ps. aeruginosa ATCC 27853; assay: MIC, agar dilution; conditions: Pseudomonas aeruginosa, ATCC27853, 18 h
[10] = test system: S. aureus UBMS 88-7 Tet K; assay: microbe, parasite or virus in culture; conditions: Staphylococcus aureus, UBMS887TETK, 18 h
E. coli UBMS 88-1 Tet B = assay: microbe, parasite or virus in culture; conditions: Escherichia coli, UBMS881TETB, 18 h
S. aureus NEMC 8769 = assay: MIC, agar dilution; conditions: Staphylococcus aureus, NEMC8769, 18 h
E. faecalis ATCC 29212 = assay: MIC, agar dilution; conditions: Enterococcus faecalis, ATCC29212, 18 h
Enterococcus 12201 = assay: MIC, agar dilution; conditions: Enterococcus, 12201, 18 h
S. aureus ROSE (MP) = assay: MIC, agar dilution; conditions: Staphylococcus aureus, 18 h
E. coli UBMS 90-4 Tet M = assay: microbe, parasite or virus in culture; conditions: Escherichia coli, UBMS904TETM, 18 h
S. marcescens FPOR 8733 = assay: MIC, agar dilution; conditions: Serratia marcescens, FPOR8733, 18 h
[11] = S. aureus SMITH (MP), read-out: MIC
[12] = S. hemolyticus AVHAH 88-3, read-out: MIC
[13] = Ps. aeruginosa ATCC 27853, read-out: MIC
[14] = E. faecalis ATCC 29212, read-out: MIC
[15] = Enterococcus 12201, read-out: MIC

| Structure (SMILES) | MIC [1] | MIC (S. aureus IVES 1983) | MIC [3] | MIC [4] | MIC [5] | MIC (E. coli #311 (MP)) | MIC (S. aureus UBMS 88-4) | MIC (E. coli J2175) | MIC [7] | MIC (E. coli J3272 Tet D) | MIC (E. coli BAJ9003 IMP MUT) | MIC (E. coli PRP1 Tet A) | MIC [8] | MIC (E. coli UBMS 89-1 Tet M) | MIC (E. coli J3272 Tet C) | MIC (E. coli UBMS 90-5) | MIC (S. aureus IVES 2943) | MIC [10] | MIC (E. coli UBMS 88-1 Tet B) | MIC (E. coli UBMS 90-4 Tet M) | other results |
| --- | --- | --- | --- | --- | --- | --- | --- | --- | --- | --- | --- | --- | --- | --- | --- | --- | --- | --- | --- | --- | --- |
| CN(C)CC(=O)Nc1ccc2c(c1O)C(=O)C1=C(O)[C@]3(O)C(=O)C(C(=O)NCN4CCCC4)=C(O)[C@@H](N(C)C)C3CC1C2 (stereo partly drawn) [EE, [4S-(4alpha,12aalpha)]-4-(Dimethylamino)-9-[[(dimethylamino)acetyl]amino]-1,4,4a,5,5a,6,11,12a-octahydro-3,10,12,12a-tetrahydroxy-1,11-dioxo-N-(l-pyrrolidinylmethyl)-2-naphthacenecarboxamide] | 0.25 µg/mL (≈ 0.418 µM) | 2 µg/mL (≈ 3.35 µM) | 0.25 µg/mL (≈ 0.418 µM) | 0.5 µg/mL (≈ 0.837 µM) | 0.5 µg/mL (≈ 0.837 µM) | 0.5 µg/mL (≈ 0.837 µM) | 0.25 µg/mL (≈ 0.418 µM) | 0.5 µg/mL (≈ 0.837 µM) | 0.25 µg/mL (≈ 0.418 µM) | 0.25 µg/mL (≈ 0.418 µM) | 0.12 µg/mL (≈ 0.201 µM) | 2 µg/mL (≈ 3.35 µM) | 0.12 µg/mL (≈ 0.201 µM) | 0.25 µg/mL (≈ 0.418 µM) | 1 µg/mL (≈ 1.67 µM) | 0.25 µg/mL (≈ 0.418 µM) | 2 µg/mL (≈ 3.35 µM) | 1 µg/mL (≈ 1.67 µM) | 0.5 µg/mL (≈ 0.837 µM) | 0.25 µg/mL (≈ 0.418 µM) | MIC (S. aureus SMITH (MP); [11]): 0.25 µg/mL (≈ 0.418 µM); MIC [2, 12]: 0.5 µg/mL (≈ 0.837 µM); MIC ([6]; X. maltophilia NEMC 87210, read-out: MIC): 2 µg/mL (≈ 3.35 µM); MIC (E. coli ATCC 25922): 0.25 µg/mL (≈ 0.418 µM); MIC (S. aureus UBMS 90-3; S. aureus UBMS 90-3): 0.12 µg/mL (≈ 0.201 µM); MIC (S. aureus ATCC 29213; read-out: MIC): 0.25 µg/mL (≈ 0.418 µM); MIC [9, 13]: 16 µg/mL (≈ 26.8 µM); MIC (S. aureus NEMC 8769; read-out: MIC): 0.25 µg/mL (≈ 0.418 µM); MIC (E. faecalis ATCC 29212; [14]): 0.12 µg/mL (≈ 0.201 µM); MIC (Enterococcus 12201; [15]): 0.25 µg/mL (≈ 0.418 µM); MIC (S. aureus ROSE (MP)): 8 µg/mL (≈ 13.4 µM); MIC (S. marcescens FPOR 8733; read-out: MIC): 4 µg/mL (≈ 6.69 µM) |
| CCNCC(=O)Nc1ccc2c(c1O)C(=O)C1=C(O)[C@]3(O)C(=O)C(C(N)=O)=C(O)[C@@H](N(C)C)C3CC1C2 (stereo partly drawn) [E, [4S-(4alpha,12aalpha)]-4-(Dimethylamino)-9-[[(ethylamino)acetyl]amino]-1,4,4a,5,5a,6,11,12a-octahydro-3,10,12,12a-tetrahydroxy-1,11-dioxo-2-naphthacenecarboxamide dihydrochloride] |  | 8 µg/mL | 0.5 µg/mL | 0.5 µg/mL | 1 µg/mL | 0.5 µg/mL | 0.5 µg/mL | 0.5 µg/mL | 0.5 µg/mL | 0.25 µg/mL | 0.12 µg/mL | 2 µg/mL | 0.25 µg/mL | 0.25 µg/mL | 1 µg/mL | 0.5 µg/mL | 16 µg/mL | 8 µg/mL | 0.5 µg/mL | 0.25 µg/mL | MIC ([1]; S. aureus UBMS 90-2 Tet M): 0.12 µg/mL; MIC (S. aureus SMITH (MP); [11]): 0.25 µg/mL; MIC [2]: 1 µg/mL; MIC [6]: 8 µg/mL; MIC (E. coli ATCC 25922; read-out: MIC): 0.25 µg/mL; MIC (S. aureus UBMS 90-3; S. aureus UBMS 90-3): 0.12 µg/mL; MIC (S. aureus ATCC 29213): 0.5 µg/mL; MIC [9]: 16 µg/mL; MIC (S. aureus NEMC 8769): 0.12 µg/mL; MIC (E. faecalis ATCC 29212): 0.25 µg/mL; MIC (Enterococcus 12201; [15]): 0.25 µg/mL; MIC (S. aureus ROSE (MP)): > 32 µg/mL; MIC (S. marcescens FPOR 8733; read-out: MIC): 4 µg/mL |
| CN(C)[C@@H]1C(O)=C(C(N)=O)C(=O)[C@@]2(O)C(O)=C3C(=O)c4c(ccc(NC(=O)CN5CCCCC5)c4O)CC3CC12 (stereo partly drawn) [I, [7S-(7alpha,10aalpha)]-N-9-(Aminocarbonyl)-7-(dimethylamino)-5,5a,6,6a,7,10,10a,12-octahydro-1,8,10a,11-tetrahydroxy-10,12-dioxo-1-piperidineacetamide dihydrochloride] | 0.25 µg/mL | 1 µg/mL | 0.5 µg/mL | 0.5 µg/mL | 1 µg/mL | 0.5 µg/mL | 0.5 µg/mL | 0.5 µg/mL | 0.5 µg/mL | 0.5 µg/mL | 0.12 µg/mL | 1 µg/mL | 0.25 µg/mL | 0.25 µg/mL | 1 µg/mL | 0.5 µg/mL | 1 µg/mL | 0.5 µg/mL | 1 µg/mL | 0.5 µg/mL | MIC (S. aureus SMITH (MP)): 0.25 µg/mL; MIC [2, 12]: 2 µg/mL; MIC [6]: 0.5 µg/mL; MIC (E. coli ATCC 25922): 0.5 µg/mL; MIC (S. aureus UBMS 90-3): 0.25 µg/mL; MIC (S. aureus ATCC 29213; read-out: MIC): 0.5 µg/mL; MIC [9, 13]: > 32 µg/mL; MIC (S. aureus NEMC 8769; read-out: MIC): 0.5 µg/mL; MIC (E. faecalis ATCC 29212; [14]): 0.25 µg/mL; MIC (Enterococcus 12201): 0.25 µg/mL; MIC (S. aureus ROSE (MP); read-out: MIC): 4 µg/mL; MIC (S. marcescens FPOR 8733): 8 µg/mL |
